# Measured values: US11129820B2, “Ferroportin-inhibitor salts” (Vifor (International) AG, priority 2017, dated 2021)
# Experiments:
# [1] = Approximate solubility of the starting compound in solvents and solvent mixtures; type: physicochemical; details: thermodynamic from solid
# Experimental: Approximate solubilities were determined by incremental addition of solvent to about 10 mg the compound. […] Due to the experimental error inherent in this method, the solubility values are intended to be regarded as rough estimates and are to be used solely for the design of crystallization experiments.
# Approximate solubilities were determined by incremental addition of solvent to about 10 mg of the compound. […] Due to the experimental error inherent in this method, the solubility values were regarded as rough estimates and were only used for the design of crystallization experiments.
# The approximate solubility of SP236-FB-P1 was determined in a number of different solvents and solvent mixtures to help guide the salt/co-crystal experiments.
# [2] = tested on: beta2-microglobulin deficient (b2m−/−) mice; experiment: Correction of hyperferremia in beta2-microglobulin deficient mice; type: in vivo, mouse; details: for Serum Iron Reduction (%): 60 mg/kg oral, 3 hours (##)
# Experimental: Female and male homozygous b2m−/− mice are supplied from Jackson Laboratories (B6.129P2-B2mtm1Unc/J, Stock Number: 002087) at age of 6 to 7 weeks and fed standard diet (Harlan Provimi Kliba 3436) ad libitum. Age and gender matched WT C57BL/6 mice are supplied by Charles River. To study the acute effects of ferroportin (Fpn) inhibitors in iron overload b2m−/− mice are treated with compounds or the corresponding amount of vehicle at a volume of 10 ml/kg body weight. Fpn inhibitor compounds are formulated in 0.5% methylcellulose/water or 20% cremophor EL/water and dosed p.o. in mice at 50 mg/kg body weight. WT controls received only vehicle. Three hours later, mice are pre-terminally anesthetized in isoflurane chambers and blood is collected by retro-orbital bleeding. Mice are sacrificed by cervical dislocation and spleens, livers and duodena are harvested and used for biomarker analysis. All experiments are performed in compliance with license approved by the responsible veterinarian authorities. Serum is isolated by centrifugation of blood into gel-containing microtainers (BD Biosciences) and serum iron is determined by the MULTIGENT Iron assay (Abbott Diagnostics, Cat. 6K95). Four to nine mice per group are used and one-way ANOVA with Bonferroni's multiple comparison test is applied to analyze the statistical differences between the experimental groups.
# Blood is collected 1 (#) or 3 (##) hours after oral administration of the indicated doses of Fpn inhibitors to beta2-microglobulin deficient mice and serum iron concentrations are measured. Relative reduction (%) of serum iron levels are shown, which were calculated by subtracting the average of serum iron values of animals dosed with the Fpn inhibitor from that of vehicle-treated animals. The difference in average serum iron values between vehicle and compound treated groups was then divided by the average of serum iron of the vehicle control group and listed as percentage. Values are listed separately for female (♀) and male (♂) animals, because a marked sex-dependent difference in efficacy was noted. Statistically significant (2-way ANOVA with Bonferroni post test) differences observed between compound-treated and vehicle-treated groups are indicated (*** p<0.001; ** p<0.01, p<0.05).
# naïve WT C57BL/6 mice = experiment: Hypoferremia in naïve mice; type: in vivo, mouse; details: injection in WT naïve mice, maximal effect at 3-4 hours post treatment
# Experimental: Injection of synthetic hepcidin in wild-type (WT) naïve mice results in a reduction of serum iron levels (40-50% from the vehicle control) with a maximal effect at 3-4 hours post treatment (Rivera, 2005; FIG. 12A).
# Female C57BL/6 mice (Janvier, France) at age of 9 weeks are fed a standard diet (Harlan Provimi Kliba 3436) and treated per os (p.o.) with compounds or the corresponding amount of vehicle at a volume of 10 ml/kg body weight. Fpn inhibitors are formulated in 0.5% methylcellulose/water or 20% cremophor EL/water and dosed p.o. in mice at 10, 30 or 100 mg/kg body weight. Three hours later, mice are pre-terminally anesthetized in isoflurane chambers and blood is collected by retro-orbital bleeding. Mice are sacrificed by cervical dislocation and spleens, livers and duodena were harvested and used for biomarker analysis. All experiments are conducted in compliance with the license approved by the responsible veterinarian authorities. Serum is isolated by centrifugation of blood into gel-containing microtainers and serum iron is determined by the MULTIGENT Iron assay (Abbott Diagnostics, 6K95). Eight mice per group are used and one-way ANOVA with Bonferroni's multiple comparison test is performed to analyze the statistical differences between the experimental groups.
# Table 6 Efficacy of Fpn inhibitors tested in the naïve mouse hypoferremia model. Serum iron reduction induced by selected ferroportin inhibitors dosed p.o. in naïve WT C57BL/6 mice at 10, 30 and 100 mg/kg. Relative serum iron reduction at 3 h after dosing was calculated by subtracting the average of serum iron values of animals dosed with the Fpn inhibitor from that of vehicle-treated animals. The difference in average serum iron values between vehicle and compound treated groups was then divided by the average of serum iron of the vehicle control group and listed as percentage.
# ferroportin (Fpn) = target: T1, ferroportin (Fpn) (Mus musculus, UniProt Q9JHI9); experiment: Ferroportin Ubiquitination and Degradation (J774, immunoprecipitation, Western blot); type: cell-based; parameters: key: +: comparable to hepcidin; −: no effect; +/−: intermediate effect; details: J774 cells, ca. 10-fold IC50 concentration, visual inspection of Western blots
# T1 construct: endogenous in cells; host or cells: J774 mouse macrophage cell line (DSMZ, Cat. ACC170), induced with 200 uM Fe(III)-NTA
# T1 sequence (Q9JHI9 1-570): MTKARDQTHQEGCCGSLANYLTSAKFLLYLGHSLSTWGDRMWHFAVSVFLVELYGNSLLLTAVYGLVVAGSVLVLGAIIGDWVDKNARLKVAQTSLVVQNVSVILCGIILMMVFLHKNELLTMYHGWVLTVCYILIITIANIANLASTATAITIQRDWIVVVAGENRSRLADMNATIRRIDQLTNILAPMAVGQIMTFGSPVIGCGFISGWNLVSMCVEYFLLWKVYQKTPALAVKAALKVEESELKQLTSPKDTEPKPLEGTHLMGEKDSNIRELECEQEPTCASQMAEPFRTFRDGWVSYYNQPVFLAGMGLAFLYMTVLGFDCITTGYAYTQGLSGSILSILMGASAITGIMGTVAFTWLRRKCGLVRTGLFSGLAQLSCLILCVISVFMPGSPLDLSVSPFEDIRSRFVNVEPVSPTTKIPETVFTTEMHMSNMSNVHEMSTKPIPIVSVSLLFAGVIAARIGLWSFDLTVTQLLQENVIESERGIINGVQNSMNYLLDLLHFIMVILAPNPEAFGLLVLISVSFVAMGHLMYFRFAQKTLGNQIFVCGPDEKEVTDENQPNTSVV
# Experimental: Exposure of cells expressing ferroportin (Fpn) to hepcidin is known to trigger ubiquitination and subsequent internalization and degradation of Fpn (Qiao, 2012). The potential of Fpn inhibitors to induce Fpn ubiquitination and degradation is investigated with an immunoprecipitation assay using the J774 mouse macrophage cell line which expresses Fpn upon treatment with iron.
# Cells are incubated with synthetic human hepcidin (Bachem, Cat. H-5926) or Fpn inhibitor compounds for 10 min or 120 min. Cells are washed and lysed with ice-cold lysis buffer (Pierce, Life Technoligies, Cat. 87787) including 1×HALT protease inhibitor cocktail (Life technologies, Cat. 78429) and 10 mM iodoacetamide (Sigma, Cat. 16125) to stabilize ubiquitinated proteins. Immunoprecipitation is done using the Pierce Classic IP Kit (Life Technologies, Cat. 26146) following the manufacturer's protocol. Briefly, 2 mg protein in 1.25 ml IP lysis buffer is incubated by mixing for 1 h at 4° C. with control agarose beads to pre-clear the lysate and reduce nonspecific signal. Unbound lysate is then incubated overnight with 12 μg per reaction of the affinity purified anti-Fpn antibody F308 that was raised against a GST fusion protein of mouse Fpn amino acids 224-308. Immune complexes are captured by pipetting 14 μl settled Pierce Protein A/G Plus Agarose beads (Life Technologies, Cat. 20423) per reaction and the slurry is incubated for 1.5 h at 4° C. with gentle end-over-end mixing. The beads are washed and immune complexes are eluted directly with 75 μl SDS NuPAGE LDS sample buffer (Life Technologies, Cat. NP0007) containing DTT (Life Technologies, Cat. NP0009).
# After immunoprecipitation samples are analyzed by Western blotting using a rabbit anti-mouse MTP1 antiserum (Alpha Diagnostic International, Cat. MTP11-A) and a mouse anti-mono- and polyubiquitinylated conjugates monoclonal antibody (Enzo Lifesciences, Cat. BML-PW8810) for detection of ferroportin and ubiquitin, respectively. Mouse monoclonal anti-rabbit IgG light chain (Abcam, Cat. ab99697) and anti-mouse IgG H&L (Abcam, Cat. ab6789) HRP conjugates are used as secondary antibodies.
# Hbb th3/+ mice = experiment: Mouse model of β-thalassemia intermedia (Hbb th3/+ mice); type: in vivo; details: for Decrease in RDW by 20/60 mg/kg compound / Decrease in serum iron by 20/60 mg/kg compound: % change to vehicle; for Correction of anemia at day 20-48 by 20/60 mg/kg: hemoglobin difference to vehicle; for Decrease in serum iron by 20/60 mg/kg compound: dosed for 3 h
# Experimental: The efficacy of Fpn inhibitors is investigated using a mouse model of transfusion-independent β-thalassemia. Mice with heterozygous deletion of β 1 and β 2 globin genes (called Hbb th3/+ mice) develop transfusion-independent anemia, ineffective erythropoiesis, splenomegaly and secondary iron overload in spleen, liver and kidneys. […] Hbb th3/+ mice are dosed twice daily with either compound at 20 or 60 mg/kg or with methylcellulose (10 ml/kg, Sigma, Cat. 274429) as a vehicle. Between both doses mice have access to drinking water supplemented with 1 mM ^58Fe(II)-sulfate (Vifor Pharma, Batch No. ROR 3096) and 10 mM ascorbic acid (Sigma, Cat. 795437) for 6 h. The concentration of ^58Fe(II)-Sulfate supplied in the drinking water is adjusted to substitute for intake of standard rodent diet with iron content of 250 ppm. Water without ^58Fe(II)-Sulfate and ascorbic acid is provided during the remaining 18 h. Dosing of Fpn inhibitors or vehicle followed by exposure to iron-containing water is repeated for 20 to 46 days in individual experiments.
# Additional hematologic parameters are measured in terminal blood using automated blood cell analyzer.
# The inefficient erythropoiesis of Hbb th3/+ mice causes excessive proliferation of erythroid precursors in spleen, leading to splenomegaly.
# Elevated erythropoietin levels in Hbb th3/+ mice induce overexpression of erythroferrone, an erythroid regulator hormone known to suppress hepcidin (Kautz L. et al, Nat. Genet., 2014). […] Erythroferrone is produced by erythrocyte precursors proliferating massively in spleens of Hbb th3/+ mice as a consequence of extramedullar erythropoiesis.
# Increased iron demand due to inefficient erythropoiesis and chronically low hepcidin levels in patients with thalassemia causes organ iron loading and associated morbidities, such as hepatocellular carcinoma and heart failure (Rivella S. Haematologica, 2015). Hbb th3/+ mice absorb excessive amounts of iron as a consequence of inadequately low hepcidin levels relative to the high iron content in liver, spleen and kidney and increased ferroportin expression in duodenum (Gardenghi S., Blood, 2007).
# Additionally, reactive oxygen species (ROS) are detected in bone marrow cells using a fluorescent indicator, CM-H2DCFDA (Thermo Fisher Scientific, Cat. C6827).
# Data are expressed as difference to the vehicle control group for hemoglobin and as % change to the vehicle control group for all other parameter shown
smiles,measurement,setting,value
O=C(NCc1ncccc1F)c1coc(CCNCCc2nc3ccccc3[nH]2)n1 [SP236-FB-P1],solubility,"[1]; aqueous with cosolvent or surfactant or cyclodextrin, 2-propanol-water 1:3",39 to 47 mg/mL
same,solubility,"[1]; aqueous with cosolvent or surfactant or cyclodextrin, Methanol-water 1:1",> 100 mg/mL
same,solubility,"[1]; organic solvent or mixture, 2-Propanol",80 to 120 mg/mL
same,solubility,"[1]; organic solvent or mixture, Acetonitrile",> 200 mg/mL
same,solubility,"[1]; organic solvent or mixture, DMSO",> 100 mg/mL
same,solubility,"[1]; organic solvent or mixture, Dioxane",> 100 mg/mL
same,solubility,"[1]; organic solvent or mixture, Ethanol",> 100 mg/mL
same,solubility,"[1]; organic solvent or mixture, Ethyl acetate",> 100 mg/mL
same,solubility,"[1]; organic solvent or mixture, Ethyl acetate-cyclohexane 3:1",5 to 7 mg/mL
same,solubility,"[1]; organic solvent or mixture, Heptane",< 1 mg/mL
same,solubility,"[1]; organic solvent or mixture, Methanol",> 200 mg/mL
same,solubility,"[1]; organic solvent or mixture, THF",> 200 mg/mL
same,solubility,"[1]; organic solvent or mixture, THF-heptane 3:1",> 200 mg/mL
same,solubility,[1]; Water,~15 mg/mL
O=C(NCc1ncccc1F)c1csc(CCNCCc2nc3ccccc3[nH]2)n1 [Example Compound No. 94],"Correction of elevated serum iron, in words","[2]; b2m−/− mice, 50 mg/kg p.o., 3 h",corrected the elevated serum iron to the levels observed in WT controls
same,Serum Iron Reduction (%),[2]; female ♀,47%
same,Serum Iron Reduction (%),[2]; male ♂,67%
"CC[C@H](C)[C@@H]1NC(=O)[C@@H](NC(=O)[C@@H](NC(=O)[C@@H]2CCCN2C(=O)[C@H](Cc2ccccc2)NC(=O)[C@H](Cc2c[nH]cn2)NC(=O)[C@@H](NC(=O)[C@@H](N)CC(=O)O)[C@@H](C)O)[C@@H](C)CC)CSSC[C@@H](C(=O)N[C@@H](CCCCN)C(=O)N[C@H](C(=O)O)[C@@H](C)O)NC(=O)[C@@H]2CSSC[C@@H]3NC(=O)[C@@H]4CSSC[C@H](NC(=O)[C@H](Cc5ccccc5)NC1=O)C(=O)N[C@@H](CSSC[C@H](NC(=O)[C@H](CCCCN)NC(=O)[C@H](CO)NC(=O)[C@H](CCCNC(=N)N)NC(=O)[C@H](Cc1c[nH]cn1)NC3=O)C(=O)NCC(=O)N[C@@H](CCSC)C(=O)N2)C(=O)NCC(=O)N4 [hepcidin, reference compound]",Reduction of serum iron levels from the vehicle control,naïve WT C57BL/6 mice,40-50%
same,Fpn Degradation (120 min.),ferroportin (Fpn),+
same,Fpn Ubiquitination (10 min.),ferroportin (Fpn),+
O=C(NCc1ncccc1F)c1coc(CCNCc2nc3ccccc3[nH]2)n1 [Example Compound No. 126],Fpn Degradation (120 min.),ferroportin (Fpn),+
same,Fpn Ubiquitination (10 min.),ferroportin (Fpn),+/−
O=C(NCc1ncccc1F)c1coc(CCNCCc2nc3ccccc3[nH]2)n1 [Example Compound No. 127],Decrease in RDW by 20/60 mg/kg compound,Hbb th3/+ mice; 20 mg/kg twice daily for 20-46 days,19%
same,Correction of anemia at day 20-48 by 20/60 mg/kg,Hbb th3/+ mice; 20 mg/kg twice daily,12 g/L
same,Decrease in serum iron by 20/60 mg/kg compound,Hbb th3/+ mice; 20 mg/kg,68%
same,Decrease in RDW by 20/60 mg/kg compound,Hbb th3/+ mice; 60 mg/kg twice daily for 20-46 days,25%
same,Correction of anemia at day 20-48 by 20/60 mg/kg,Hbb th3/+ mice; 60 mg/kg twice daily,20 g/L
same,Decrease in serum iron by 20/60 mg/kg compound,Hbb th3/+ mice; 60 mg/kg,81%
